Data as given in the NIST ThermoML archive (doi:10.1016/j.jct.2007.05.016).
Where “and” joins values, the source holds several entries; their conditions need not be identical. Identical values can stand only once. ± gives the expanded uncertainty stated by the source.

How the values were obtained:
[1] = 101 kPa, Liquid; for speed of sound: Sing-around technique in a fixed-path interferometer
[2] = xn = mol fraction of the nth substance listed; conditions: 101 kPa, Liquid, x1 = 1; for speed of sound: Sing-around technique in a fixed-path interferometer

Row | Structure (SMILES) | mass density ([1]; 298.15 K) [kg/m3] | viscosity ([1]; 298.15 K) [mPa·s] | speed of sound ([1]; 298.15 K) | mass density ([1]; 303.15 K) [kg/m3] | speed of sound ([1]; 303.15 K) [m/s] | mass density ([1]; 308.15 K) [kg/m3] | speed of sound ([1]; 308.15 K) [m/s] | speed of sound ([2]; 298.15 K) [m/s] | mass density ([2]; 298.15 K) [kg/m3] | viscosity ([2]; 298.15 K) [mPa·s] | speed of sound ([2]; 303.15 K) [m/s] | mass density ([2]; 303.15 K) [kg/m3] | speed of sound ([2]; 308.15 K) [m/s] | mass density ([2]; 308.15 K) [kg/m3]
1 | CCCCO [butan-1-ol] | 805.907 ± 0.77 | 2.573 ± 0.032 | 1240.5 ± 1.2 m/s and 1240.4 ± 1.2 m/s | 803.155 ± 0.78 | 1226.5 ± 1.2 | 799.249 ± 0.78 | 1209.8 ± 1.2 | – | – | – | – | – | – | –
2 | CCCCO [butan-1-ol] + CCCCCC | – | – | – | – | – | – | – | 1240.5 ± 1.2 | 805.907 ± 0.77 | 2.573 ± 0.032 | 1226.5 ± 1.2 | 803.155 ± 0.78 | 1209.8 ± 1.2 | 799.249 ± 0.78
3 | CCCCO [butan-1-ol] + CCCCCCCC | – | – | – | – | – | – | – | 1240.4 ± 1.2 | 805.907 ± 0.77 | 2.573 ± 0.032 | 1226.5 ± 1.2 | 803.155 ± 0.78 | 1209.8 ± 1.2 | 799.249 ± 0.78
4 | CCCCO [butan-1-ol] + CCCCCCCCCC | – | – | – | – | – | – | – | 1240.5 ± 1.2 | 805.907 ± 0.77 | 2.573 ± 0.032 | 1226.5 ± 1.2 | 803.155 ± 0.78 | 1209.8 ± 1.2 | 799.249 ± 0.78

The remaining lines, values ahead:

Row | mass density ([1]; 298.15 K) [kg/m3] | viscosity ([1]; 298.15 K) [mPa·s] | speed of sound ([1]; 298.15 K) | mass density ([1]; 303.15 K) [kg/m3] | speed of sound ([1]; 303.15 K) [m/s] | mass density ([1]; 308.15 K) [kg/m3] | speed of sound ([1]; 308.15 K) [m/s] | speed of sound ([2]; 298.15 K) [m/s] | mass density ([2]; 298.15 K) [kg/m3] | viscosity ([2]; 298.15 K) [mPa·s] | speed of sound ([2]; 303.15 K) [m/s] | mass density ([2]; 303.15 K) [kg/m3] | speed of sound ([2]; 308.15 K) [m/s] | mass density ([2]; 308.15 K) [kg/m3] | Structure (SMILES)
5 | 726.806 ± 0.93 | 0.852 ± 0.012 | 1234.8 ± 1.2 m/s | 723.042 ± 0.94 | 1215.2 ± 1.2 | 719.23 ± 0.95 | 1195.6 ± 1.2 | – | – | – | – | – | – | – | CCCCCCCCCC [decane]
6 | 655.072 ± 1.1 | 0.313 ± 0.008 | 1077.8 ± 1.2 m/s | 650.369 ± 1.1 | 1055.2 ± 1.1 | 645.767 ± 1.1 | 1032.9 ± 1.1 | – | – | – | – | – | – | – | CCCCCC [hexane]
7 | 698.58 ± 0.99 | 0.518 ± 0.009 | 1172.7 ± 1.2 m/s | 694.497 ± 1 | 1152.1 ± 1.2 | 690.416 ± 1 | 1131.7 ± 1.2 | – | – | – | – | – | – | – | CCCCCCCC [octane]
